These results are taken from patent US20060149064A1, “Process to prepare malayamycin derivatives” (priority 2003, published 2006).

Series [1] deals with Blumeria graminis f. sp. tritici (ERYSGT). The series can be described thus: Foliar protectant test against Blumeria graminis f. sp. tritici (ERYSGT) on wheat. It is filed as in vivo. The settings on record: 100 ppm foliar spray on wheat; inoculated 6 hours after application; banded assessment. As to the method: (§1) This Example illustrates the fungicidal properties of certain of the novel compounds of formula (I). The compounds were tested against a variety of foliar fungal diseases of plants. The technique employed was as follows. Plants were grown on an artificial, cellulose based growing medium. The test compounds were individually diluted in reverse osmosis water to a final concentration of 100 ppm in water (that is, 1 mg of compound in a final volume of 10 ml) immediately before use. TWEEN 20 (at a final concentration of 0.05% by volume) was added with the water to improve retention of the spray deposit. TWEEN is a registered trade mark. The compounds were applied to the foliage of the test plants by spraying the plant to maximum droplet retention. […] After chemical application and inoculation, the plants were incubated under high humidity conditions (except those inoculated with Blumeria graminis f. sp. tritici) and then put into an appropriate environment to allow infection to proceed until the disease was ready for assessment. […] However, each individual disease was assessed after the same time period for all compounds. […] The disease level present (the percentage leaf area covered by actively sporulating disease) was assessed visually. For each treatment, the assessed values for all its replicates were meaned to provide mean disease values. Untreated control plants were assessed in the same manner. […]

Series [2] concerns Puccinia triticina (PUCCRT). The series can be described thus: Foliar protectant test against Puccinia triticina (PUCCRT) on wheat. It is filed as in vivo. Particulars: 100 ppm foliar spray on wheat; inoculated one day after application; banded assessment. As to the method: as §1
In series [3] the test system is Stagonospora nodorum (LEPTNO). Kind of series: Foliar protectant test against Stagonospora nodorum (LEPTNO) on wheat. Format: in vivo. The settings on record: 100 ppm foliar spray on wheat; inoculated one day after application; banded assessment. As to the method: as §1

For the compound `CO[C@H]1CO[C@H]2C(O)[C@H](c3c[nH]c(=O)[nH]c3=O)O[C@@H]2[C@@H]1NC(N)=O` (stereo partly drawn) [compound 2, 6-epi-malayamycin A], in series [1], the “PRCO (percentage Disease Reduction from Control) ERYSGT 6 hour Protectant” value worked out at 50. For the same compound, the “PRCO (percentage Disease Reduction from Control) PUCCRT 1 day Protectant” value in series [2] was determined as 100. The “PRCO (percentage Disease Reduction from Control) LEPTNO 1 day Protectant” value in series [3] is listed as 45.
As a reminder, the melting point is the temperature, or range, at which the solid turns liquid. As for `CO[C@@H]1CO[C@H]2C(O)[C@H](c3c[nH]c(=O)[nH]c3=O)O[C@@H]2[C@@H]1NC(N)=O` (stereo partly shown) [Compound No. 1, malayamycin A], the melting point was 158 °C (dec.).
With `NC(=O)N[C@H]1[C@H]2O[C@@H](c3c[nH]c(=O)[nH]c3=O)C(O)[C@@H]2OC[C@H]1O` (stereo partly shown) [compound 3, desmethylmalayamycin A], in series [1], the “PRCO (percentage Disease Reduction from Control) ERYSGT 6 hour Protectant” value was found to be 0. Besides, the “PRCO (percentage Disease Reduction from Control) PUCCRT 1 day Protectant” value in series [2] amounted to 100. The “PRCO (percentage Disease Reduction from Control) LEPTNO 1 day Protectant” value in series [3] was found to be 100.
